Measured values taken from patent US20050171424A1, “Methods for imaging the lymphatic system using dendrimer-based contrast agents” (The Gov. of the USA as rep. by the Secretary of the Dept. …, priority 2004, published 2005).
“Also recorded” adds a separate entry of the source.

Assays:
[1] = system: external iliac lymph nodes in infection model; experiment: 3D-micro-MRL of nude mice with spontaneous oral ulcers and urinary tract infections; assay type: in vivo; details: 45 minutes after injection, FIG. 16B
Method: (§1) In this example, the PAMAM-G8 contrast agent is compared to GPDM. PAMAM-G8 was prepared as described in Example 2, and GPDM was purchased (Schering AG, Berlin, Germany). Animal models, administration of the contrast agents, and 3D-micro-MRL were as described in Example 2.
Nude mice that develop spontaneous oral ulcers and urinary tract infections also were examined.

[2] = system: lymph nodes and lymphatic vessels of IL-15 transgenic mice; experiment: 3D-micro-MRL in IL-15 transgenic lymphoproliferative/neoplastic disease model; assay type: in vivo; details: 45 minutes after injection
Method: Eight- to 10-month old IL-15 transgenic mice (on a C57BL6 background) were used as a chronic lymphoproliferative/neoplastic disease model because they manifested selective expansion of NK, CD8^+NK-T, γδIELs, and CD8 T cells in the periphery. Most of the lymph nodes collected from an aged IL-15 transgenic mouse were enlarged in size. The lesion of proliferated monoclonal lymphocytes often involved the lung and the subcutaneous lymphatic tissue.
(§2) The mice were anesthetized with 1.15 mg sodium pentobarbital (Dainabot, Osaka, Japan) i.p., and then injected intracutaneously with 0.1 μmolGd of PAMAM-G8, DAB-G5, PAMAM-G4, Gadomer-17, or GPDM into four middle phalanges in all four extremities. Dynamic micro-MR images were obtained using a 1.5-Tesla superconductive magnet unit (Signa LX, General Electric Medical System, Milwaukee, Wis.) with a round birdcage type coil of 3 cm diameter fixed by a custom-made coil holder. Four to eight female mice (7 weeks old, 18-21 g body weight) in each group were used and each contrast agent was prepared at least three separate times for these imaging studies. The mice were wrapped with gauze to stabilize their body temperature and were placed at the center of the coils.
(§3) A 3D-fast spoiled gradient echo [3D-fastSPGR (efgre3d package; Signa Horizon, GE); repetition time/echo time 28.5/7.9 msec; inversion time 65 msec; 31.2 kHz, flip angle 30°, four excitations; 40 slice-encoding steps; scan time 7 min 36 seconds] with chemical shift fat-suppression was used 10, 20, 30, and 45 min after injection of the contrast agents. The coronal images were reconstructed with 0.6-mm section thickness at every 0.3-mm. […] The intensities of the regions of interest (ROIs) (for example, a whole axillary lymph node, and the liver) were measured, and then the time-intensity curves analyzed. The data were expressed as the axillary lymph node-to-muscle and the axillary lymph node-to-liver ratios. […] Two board-certified radiologists separately read a set of stereo views of 3D-MRL for all studies, and estimated the visualization of the thoracic duct. […]

deep lymphatic system = experiment: Whole-body dynamic 3D-micro-MR lymphangiography of normal mice (Example 2); assay type: in vivo; details: for Number of Mice in Which the Thoracic Duct was Visualized/Number of Mice Examined: Normal Mice, 0.1 μmolGd intracutaneously into four middle phalanges
Method: as §2
(§4) A 3D-fast spoiled gradient echo [3D-fastSPGR (efgre3d package; Signa Horizon, GE); repetition time/echo time 28.5/7.9 msec; inversion time 65 msec; 31.2 kHz, flip angle 30°, four excitations; 40 slice-encoding steps; scan time 7 min 36 seconds] with chemical shift fat-suppression was used 10, 20, 30, and 45 min after injection of the contrast agents. The coronal images were reconstructed with 0.6-mm section thickness at every 0.3-mm. The FOV was 6×3 cm and the size of the matrix was 512×256. The intensities of the regions of interest (ROIs) (for example, a whole axillary lymph node, and the liver) were measured, and then the time-intensity curves analyzed. The data were expressed as the axillary lymph node-to-muscle and the axillary lymph node-to-liver ratios. The slice data were processed into 3D images using the MIP method with the same window and level (window 3500 and level 2300) (Advantage Windows, General Electric Medical System). Two board-certified radiologists separately read a set of stereo views of 3D-MRL for all studies, and estimated the visualization of the thoracic duct. After imaging, the mice were sacrificed by carbon dioxide inhalation.
Statistical analyses were performed using either Student's t-test or a one-way analysis of variance (ANOVA), with a pairwise comparison using the Bonferroni method for signal intensity curves (Statview; SAS Institute Inc., Cary, N.C.).

[3] = system: lymphatic vessels in Concanavalin A lymphangitis; experiment: 3D-micro-MRL in Concanavalin A lymphangitis model; assay type: in vivo, C57BL6 mice; details: FIGS. 10, 14A
Method: To generate a lymphangitis model, Concanavalin A ([…]) (Sigma, St. Louis, Mo.) was injected intravenously into C57BL6 mice (NCI, Frederick, Md.) 24 hours before MRI was performed.
The mice were anesthetized with 1.15 mg sodium pentobarbital (Dainabot, Osaka, Japan) i.p., and then injected intracutaneously with 0.1 μmolGd of PAMAM-G8, DAB-G5, PAMAM-G4, Gadomer-17, or GPDM into four middle phalanges in all four extremities. Dynamic micro-MR images were obtained using a 1.5-Tesla superconductive magnet unit (Signa LX, General Electric Medical System, Milwaukee, Wis.) with a round birdcage type coil of 3 cm diameter fixed by a custom-made coil holder. […]
A 3D-fast spoiled gradient echo [3D-fastSPGR (efgre3d package; Signa Horizon, GE); repetition time/echo time 28.5/7.9 msec; inversion time 65 msec; 31.2 kHz, flip angle 30°, four excitations; 40 slice-encoding steps; scan time 7 min 36 seconds] with chemical shift fat-suppression was used 10, 20, 30, and 45 min after injection of the contrast agents. […] The intensities of the regions of interest (ROIs) (for example, a whole axillary lymph node, and the liver) were measured, and then the time-intensity curves analyzed. The data were expressed as the axillary lymph node-to-muscle and the axillary lymph node-to-liver ratios. […]

[4] = system: deep lymph nodes, thoracic duct and lymphatic vessels; experiment: Whole-body 3D-micro-MR lymphangiography of normal mice, PAMAM-G8 versus GPDM (Example 3); assay type: in vivo
Method: as §2, §4, §1

[5] = system: lymph nodes infiltrated with MC-38 colorectal cancer cells; experiment: 3D-MRL in MC38 colorectal cancer lymph node metastasis model; assay type: in vivo, C57BL6 mice
Method: In addition, 10-week-old C57BL6 mice (NCI, Frederick, Md.) bearing lymph node metastases of MC38 colorectal cancer cells following either intravenous or subcutaneous injection were used as a mouse model manifesting lymph node metastasis.
The mice were anesthetized with 1.15 mg sodium pentobarbital (Dainabot, Osaka, Japan) i.p., and then injected intracutaneously with 0.1 μmolGd of PAMAM-G8, DAB-G5, PAMAM-G4, Gadomer-17, or GPDM into four middle phalanges in all four extremities. […]
as §3, with “agents.” for “agents. The coronal images were reconstructed with 0.6-mm section thickness at every 0.3-mm.”

[6] = Distribution and survival properties of the dendrimer conjugates; details: in vivo

Substance: PAMAM-G7D-(Gd-1B4M)1024 dendrimer conjugate [PAMAM-G8]
- Lymph node findings in infection model [1]: irregular dilation of the lymphatic vessels in the lymph nodes
- Visualization of dilation of lymphatic vessels ([2]; FIG. 11): best visualized with PAMAM-G8
- Lymph node findings on 3D-micro-MRL ([2]; FIGS. 11, 15A): considerable multiple lymph node swellings with central filling defects; also recorded: enlargement and a lack of enhancement within several of the lymph nodes
- Number of Mice in Which the Thoracic Duct was Visualized/Number of Mice Examined (deep lymphatic system; 10 min): 10/10
- Number of Mice in Which the Thoracic Duct was Visualized/Number of Mice Examined (deep lymphatic system; 20 min): 10/10
- Number of Mice in Which the Thoracic Duct was Visualized/Number of Mice Examined (deep lymphatic system; 30 min): 10/10
- Number of Mice in Which the Thoracic Duct was Visualized/Number of Mice Examined (deep lymphatic system; 45 min): 10/10
- Axillary lymph node-to-background (muscle) signal intensity ratio, comparison between agents (deep lymphatic system; T1-weighted signal, all time points examined, P<0.01, FIG. 9A): significantly higher than that measured with Gadomer-17 and GPDM
- Axillary lymph node-to-liver signal intensity ratio, comparison between agents (deep lymphatic system; all time points examined, P<0.01, FIG. 9B): nearly equivalent, but were significantly higher than that measured with GPDM
- Visualization of the lymphatic vessels, comparison between agents (deep lymphatic system; normal mice): better visualized with PAMAM-G8 compared to all other agents examined
- Visualization of the deep lymph nodes (deep lymphatic system; normal mice, 10 to 45 min after intracutaneous injection, FIGS. 7, 8): enabled most of the deep lymph nodes to be visualized
- Visualization by a radiologist of the thoracic duct (deep lymphatic system; normal mice, all times after administration): in all mice at all times after administration
- Detection of dilation of the lymphatic vessels [3]: demonstrated the remarkable dilation of the lymphatic vessels throughout the body, especially in the liver; also recorded: able to detect remarkable dilation of lymphatic vessels
- Visualization of other lymphatic vessels [4]: better visualized with PAMAM-G8 than with GPDM
- Visualization of deep lymph nodes throughout the body ([4]; intracutaneous injection, 0.05 mmolGd/kg (FIG. 13)): most deep lymph nodes throughout the body were visualized
- Visualization of the thoracic duct ([4]; intracutaneous injection, FIG. 13): visualized in all six mice
- Findings on 3D-MRL in mouse with lymph node metastasis ([5]; 45 minutes after injection, FIG. 12 left image): dilated lymphatic vessels surrounding the tumor and a collateral lymphatic vessel
- Findings on 3D-MRL in mice with subcutaneously xenografted MC-38 tumor ([5]; FIG. 12 right image): did not show any abnormalities in either the lymph nodes or the lymphatic vessels
- Distribution within the lymphatic system [6]: lymphotropic behavior (accumulation in the lymph system) and minimal leakage out of the lymphatic vessels
